In article PMC4792161, “A novel pyrazole derivative protects from ovariectomy-induced osteoporosis through the inhibition of NADPH oxidase” (Scientific Reports, 2016):
Where a name gives a salt, the structure may show the parent alone.

How the values were obtained:
BMMs [1] = assay: RANKL-induced intracellular ROS generation (DCF fluorescence); assay type: cell-based, C57BL/6 mice
Excerpt: RANKL-induced ROS generation was monitored by confocal microscopic analysis of DCF fluorescence. Data represent three repeated experiments and are shown as mean ± SD (n = 3). […] (D) TRAP^+ MNCs containing more than 3 nuclei were counted. Data represent mean ± S.D., *P < 0.005. Scale bar, 500 μm.
DCF-DA is oxidized by ROS to the highly fluorescent DCF. After washed with HBSS, the cells were then examined with a laser scanning confocal microscope (LSM510; Zeiss) equipped with an argon laser tuned to an excitation wavelength of 488 nm, an LP505 emission filter (515–540 nm), and a Zeiss Axiovert objective lens. Images were digitized and stored at a resolution of 512 by 512 pixels. Five groups of cells were randomly selected from each sample, and the mean relative fluorescence intensity for each group of cells was measured with a Zeiss vision system and then averaged for all groups. All experiments were repeated at least three times.

[2] = test system: OVX-induced osteoporotic ddY mice; assay: Femur weights (wet, dry, ash) in OVX mice; assay type: in vivo
Description: The right sides of femur and tibia were weighed and then dried at 120 °C for 8 hours. The dried bones were carbonized at 800 °C for 6 hours in a furnace (Daihan Scientific, Korea) to detect ash absolute weights, after measurement of BMD and failure load. To reduce the individual body weight differences, the relative weight (%) was calculated using body weight at sacrifice and absolute weight as [Relative bone weights = (Absolute bone weight/Body weight at sacrifice) ×100]. In addition, ashed bones were ground and dissolved in nitric acid. In diluted solution, Ca and P contents were calculated (mg/g bone) using an orthocresolphthalein complex and enzyme methods, respectively. The Ca/P ratio (%) was calculated as (Tibia Ca contents/Tibia P contents) ×100.

[3] = Direct ROS (H2O2) scavenging in vitro; conditions: 20 μM compound, 1 mM H2O2
Excerpt: Based on the notion that the differentiation of OCs is mediated by Nox1/2/4-dependent ROS generation, we have performed a high throughput enzyme inhibitor screening assay to identify chemical compounds having Nox1/2/4 inhibitory activity for the development of an anti-osteoporosis agent. Purified Drosophila membranes expressing human Nox1, Nox2, or Nox4 were used to monitor ROS production by determining the oxidation of lucigenin, evident as chemiluminescence, in the absence or presence of chemical compound[18]. A chemical library containing 31,000 compounds was screened to identify Nox inhibitors. […] (Fig. 1B, Supplementary Fig. S2). […] Moreover, we investigated whether Ewha-18278 can directly scavenge ROS in vitro.
(§1) Supplementary Figure S3. (A) Ewha-18278 compounds can not directly scavenge superoxide or other reactive species in vitro. ROS (H2O2) measured with lucigenin. Reaction mixtures contained 1 […]
(§2) Luminescence measured over 30 min at 37
(§3) °C with luminometor (Gloma X luminometor, Turner BioSystem). […]
(§4) the phagocytosis of zymosan. […]
(§5) incubated with FITC-zymosan particles, and internalized fluorescence was measured by flow cytometry. The data are presented as the MFI of internalized FITC. Data represent mean ± S.D. […]

[4] = Pharmacokinetics after IV and oral administration to rats; assay type: in vivo
Description: Supplementary Table S1. Pharmacokinetic parameters of Ewha-89403 following IV and oral administration at the doses of 1 mg/kg and 10 mg/kg, respectively, to rats (n=4-5) PK Parameters IV Injection Oral Administration
Absolute Bioavailability (BA) = 4.3 %
Supplementary Table S2. Pharmacokinetic parameters of Ewha-18278 following IV and oral administration at the doses of 2 mg/kg and 20 mg/kg, respectively, to rats (n=5-6) […]
Absolute Bioavailability (BA) = 63.8 %

BMMs [5] = assay: Phagocytosis assay, FITC-zymosan uptake; assay type: cell-based, C57BL/6 mice; conditions: pretreated 1 hour
Description: After the incubations, cells were washed three times with PBS, and the quantities of internalized fluorescent particles were determined by flow cytometry. FITC-zymosan uptake was quantified as mean fluorescence intensity (MFI).
as §1, §2, §3, §4, §5

[6] = test system: OVX-induced osteoporotic ddY mice; assay: Bone strength (failure load, three-point bending test) in OVX mice; assay type: in vivo; conditions: oral once daily 28 days; risedronate 2.5 mg/kg
glucose oxidase = glucose oxidase (Aspergillus niger, UniProt P13006); assay: Glucose oxidase assay (lucigenin); assay type: biochemical
Description: Glucose oxidase activity was measured by lucigenin. Reaction mixtures contained 0.75 mM glucose, 0.25 mg/ml glucose oxidase, and 0.4 mM lucigenin with the indicated inhibitor (0–20μM). Luminescence was measured over 30 min at 37 °C with luminometor (DTX800, Beckman coulter).

BMMs [7] = assay: RANKL-induced signaling, immunoblot of phospho-ERK, p38, JNK, IκBα; assay type: cell-based, C57BL/6 mice; conditions: BMMs pretreated 1 hour
Excerpt: Data represent mean ± SD. […] Actin serves as a loading control.

[8] = 2.5 mg/kg oral once daily 28 days
[9] = 5 mg/kg oral once daily 28 days
[10] = 10 mg/kg oral once daily 28 days
[11] = 20 mg/kg oral once daily 28 days

Chain of glucose oxidase (P13006 17-605, species assumed): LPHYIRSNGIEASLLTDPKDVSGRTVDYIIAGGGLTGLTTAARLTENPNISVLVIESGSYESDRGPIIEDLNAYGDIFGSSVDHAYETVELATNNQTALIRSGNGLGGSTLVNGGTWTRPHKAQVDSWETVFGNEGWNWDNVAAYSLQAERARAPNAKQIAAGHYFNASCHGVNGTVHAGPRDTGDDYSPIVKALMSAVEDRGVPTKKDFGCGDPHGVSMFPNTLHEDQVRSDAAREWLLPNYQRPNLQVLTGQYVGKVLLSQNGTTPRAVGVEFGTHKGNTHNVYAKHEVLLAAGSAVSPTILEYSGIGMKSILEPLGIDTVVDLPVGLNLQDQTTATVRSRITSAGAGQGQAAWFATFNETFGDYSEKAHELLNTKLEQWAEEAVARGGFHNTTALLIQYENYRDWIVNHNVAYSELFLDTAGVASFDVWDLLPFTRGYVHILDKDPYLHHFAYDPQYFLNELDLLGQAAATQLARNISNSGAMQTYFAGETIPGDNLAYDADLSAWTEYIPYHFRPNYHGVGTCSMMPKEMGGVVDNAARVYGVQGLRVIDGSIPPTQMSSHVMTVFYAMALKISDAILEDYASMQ

Compound: CCCc1c(-c2ccccc2)nn(-c2ccccn2)c1O [Ewha-18278, 3-phenyl-1-(pyridin-2-yl)-4-propyl-1H-5-hydroxypyrazole HCl]
- RANKL-mediated ROS generation (BMMs [1]; RANKL 200 ng/ml 10 minutes): reduced RANKL-mediated ROS generation in dose- and time-dependent manners
- concentration at plateau of inhibition of RANKL-dependent ROS generation (BMMs [1]; after 60 min): 10 µM
- Femur absolute weights, Ash [2, 8]: 0.030 g
- Femur absolute weights, Dry [2, 8]: 0.065 g
- Femur absolute weights, Wet [2, 8]: 0.097 g
- Femur absolute weights, Ash [2, 9]: 0.037 g
- Femur absolute weights, Dry [2, 9]: 0.065 g
- Femur absolute weights, Wet [2, 9]: 0.093 g
- Femur absolute weights, Ash [2, 10]: 0.038 g
- Femur absolute weights, Dry [2, 10]: 0.067 g
- Femur absolute weights, Wet [2, 10]: 0.096 g
- Femur absolute weights, Ash [2, 11]: 0.038 g
- Femur absolute weights, Dry [2, 11]: 0.067 g
- Femur absolute weights, Wet [2, 11]: 0.096 g
- change in hydrogen peroxide concentration (ROS scavenging) [3]: had no effect
- Clt ([4]; IV 2 mg/kg): 250 ± 72.3 mL/h
- oral availability ([4]; compared to Ewha-89403): high oral availability
- AUC(0-inf) ([4]; rat, in vivo, IV 2 mg/kg): 2150 ± 693 ng·h/mL
- AUC(0-t) ([4]; rat, in vivo, IV 2 mg/kg): 1770 ± 697 ng·h/mL
- C0 ([4]; rat, in vivo, IV 2 mg/kg): 7480 ± 3420 ng/mL
- Vd ([4]; rat, in vivo, IV 2 mg/kg): 1.52 ± 1.17 L
- half-life ([4]; rat, in vivo, IV 2 mg/kg): 4.07 ± 2.28 h
- bioavailability ([4]; rat, in vivo, IV 2 mg/kg and oral 20 mg/kg, read-out: Absolute Bioavailability (BA)): 63.8%
- AUC(0-inf) ([4]; rat, in vivo, oral 20 mg/kg): 14400 ± 8170 ng·h/mL
- AUC(0-t) ([4]; rat, in vivo, oral 20 mg/kg): 11300 ± 6470 ng·h/mL
- Cmax ([4]; rat, in vivo, oral 20 mg/kg): 5010 ± 2510 ng/mL
- Tmax ([4]; rat, in vivo, oral 20 mg/kg): 0.233 ± 0.171 h
- half-life ([4]; rat, in vivo, oral 20 mg/kg): 14.4 ± 3.73 h
- phagocytosis of FITC-zymosan (MFI) vs DMSO (BMMs [5]): n.s.
- bone strength (FL) of femur and tibia compared to control OVX [6]: enhanced
- inhibitory activity on glucose oxidase (glucose oxidase): no inhibitory activities
- activation of MAPKs (JNK, p38, ERK) and phosphorylation of IκBα (BMMs [7]): suppressed activation
